Test results reported in article PMC10987639 (2024).

Experiments:
[1] = test system: yjdF riboswitch aptamer domain from R. gauvreauii, P2a loop modified for Fab BL3-6 binding (crystallization construct) (RNA, riboswitch) GGACAAAGAUAAAAACACAACGUAUGGCGAAACACGUCAUACAGAUCCGGUAGGUAGUCCGGACAUAAACAGCGGUAUAAAGCGCUGUUUAUAAGUAACCUUCCUCCUUAGGUCGUCCAUUCUUUGUC; test: X-ray crystallography (2.77 Å); details: Mg2+, K+ (PDB ligands; concentrations not in material); co-crystal with Fab BL3-6, potassium osmate(VI) soak, pH 7.5; two ligand orientations
[2] = test system: yjdF riboswitch aptamer domain from R. gauvreauii, P2a loop modified for Fab BL3-6 binding (crystallization construct) (RNA, riboswitch) GGACAAAGAUAAAAACACAACGUAUGGCGAAACACGUCAUACAGAUCCGGUAGGUAGUCCGGACAUAAACAGCGGUAUAAAGCGCUGUUUAUAAGUAACCUUCCUCCUUAGGUCGUCCAUUCUUUGUC; test: X-ray crystallography (3.05 Å); details: Mg2+ (PDB ligand; concentration not in material); co-crystal with Fab BL3-6, pH 7.5; ligand orientation ambiguous

SMILES	binding [1]	binding [2]
COc1ccc2c(c[n+](C)c3c4cc5c(cc4ccc23)OCO5)c1OC	yes	–
Nc1ccc2cc3ccc(N)cc3nc2c1	–	yes
